We go through 19 molecules from patent publication US10632125B2, “MTH1 inhibitors for treatment of inflammatory and autoimmune conditions” (THOMAS HELLEDAYS STIFTELSE FÖR MEDICINSK FORSKNING, priority 2014, dated 2020).

One test deals with MTH1 (Homo sapiens, UniProt P36639). The test can be described thus: MTH1 enzymatic assay (malachite green, coupled to pyrophosphatase). The class given is biochemical.
Conditions: not given
The method, then: MTH1 catalyzes the hydrolysis of dGTP to dGMP and PPi. By coupling the reaction to pyrophosphatase added in excess PPi is converted to Pi that can be detected by using the malachite green assay reagent. […] 96-well method: Briefly, the compound to be analyzed is diluted in DMSO in a 1:3 dilution series generating 12 different compound concentrations giving a final DMSO concentration of 1% in the assay well. MTH1 diluted in assay buffer (100 mM Tris-acetate, 40 mM NaCl, 10 mM magnesium acetate, 1 mM DTT and 0.005% Tween 20) fortified with E. coli pyrophosphatase (0.2 U/ml) is added to a final concentration of 6 nM. dGTP diluted in assay buffer is added to a final concentration of 100 μM. The reaction mixture is incubated for 15 minutes at 22° C. To 100 μl reaction mixture, 25 μl Malachite green assay regent (0.095% Malachite green in 17% H2SO4, 1.5% Ammonium molybdate, 0.17% Tween 20) is added, followed by incubation with shaking for 15 minutes at 22° C. The absorbance of the assay plate is read at 630 nm using a Hidex Sense Multilabel plate reader. The IC50 value is determined by fitting a dose response curve to the data points using nonlinear regression analysis and the equation Y=Bottom+(Top-Bottom)/(1+10^((Log IC50−X)*HillSlope)), where Y is the read absorbance at 630 nm and X is log [compound].
384-Well Method: The compounds to be tested are nano-dispensed, in 11 concentrations, directly in assay plates, with a final DMSO concentration <1%. The protocol and the reaction mixture are the same as for the 96-well assay, with a total reaction volume of 50 μl/well to which 10 μl of Malachite green reagent is added. All additions to the assay plates are made with multidrop.
By IC50 is commonly meant the point on the concentration scale where inhibition reaches its midpoint. `CNc1cc(-c2cccc(Cl)c2Cl)nc(N)n1` [Example 38, 6-(2,3-dichlorophenyl)-4-N-methylpyrimidine-2,4-diamine]: the IC50 was less than 200 nM.

Still in this test, the particulars now being: dGTP 100 μM, MTH1 6 nM; 96- or 384-well format; read-out: IC50.
As to `Nc1nc(NC2CCCCC2)cc(-c2ccccc2)n1` [Example 1, 4-N-cyclohexyl-6-phenylpyrimidine-2,4-diamine], the IC50 is less than 200 nM. The same measure, in the same setting: the figure for `CCNc1cc(-c2ccccc2)nc(N)n1` [Example 2, 4-N-ethyl-6-phenylpyrimidine-2,4-diamine] is less than 200 nM; for `Nc1nc(NC2CCOCC2)cc(-c2ccccc2)n1` [Example 7, 4-N-(oxan-4-yl)-6-phenylpyrimidine-2,4-diamine] it is less than 200 nM; for `Nc1nc(NC2CC2)cc(-c2ccc(Cl)cc2)n1` [Example 13, 6-(4-chlorophenyl)-4-N-cyclopropylpyrimidine-2,4-diamine] it is less than 200 nM. Turning to `Nc1nc(NC2CC2)cc(-c2cccc(C(F)(F)F)c2)n1` [Example 16, 4-N-cyclopropyl-6-[3-(trifluoromethyl)phenyl]pyrimidine-2,4-diamine], the IC50 was less than 200 nM. On the same count and under the same terms, the value for `Nc1nc(NC2CC2)cc(-c2cccc(Cl)c2)n1` [Example 19, 6-(3-chlorophenyl)-4-N-cyclopropylpyrimidine-2,4-diamine] was less than 200 nM; that for `CNc1cc(-c2cn(S(=O)(=O)c3ccc(C)cc3)c3ccccc23)nc(N)n1` [Example 23, 4-N-methyl-6-[1-(4-methylbenzenesulfonyl)-1H-indol-3-yl]pyrimidine-2,4-diamine] was less than 200 nM; that for `CNc1cc(-c2cn(S(=O)(=O)c3ccccc3)c3ccccc23)nc(N)n1` [Example 26, 6-[1-(benzenesulfonyl)-1H-indol-3-yl]-4-N-methylpyrimidine-2,4-diamine] was less than 200 nM. Same read-out and setting: the figure for `Cc1ccc(S(=O)(=O)n2cc(-c3cc(NC4CC4)nc(N)n3)c3ccccc32)cc1` [Example 27, 4-N-cyclopropyl-6-[1-(4-methylbenzenesulfonyl)-1H-indol-3-yl]pyrimidine-2,4-diamine] is less than 200 nM; for `Nc1nc(NC2CC2)cc(-c2cn(S(=O)(=O)c3ccccc3)c3ccccc23)n1` [Example 28, 6-[1-(benzenesulfonyl)-1H-indol-3-yl]-4-N-cyclopropylpyrimidine-2,4-diamine] it is less than 200 nM; for `CNc1cc(-c2cn(S(=O)(=O)c3ccccc3)c3ncccc23)nc(N)n1` [Example 29, 6-[1-(benzenesulfonyl)-1H-pyrrolo[2,3-b]pyridin-3-yl]-4-N-methylpyrimidine-2,4-diamine] it is less than 200 nM. The same measure, in the same setting: the figure for `CNc1cc(-c2cccc3c2ccn3S(=O)(=O)c2ccccc2)nc(N)n1` [Example 30, 6-[1-(benzenesulfonyl)-1H-indol-4-yl]-4-N-methylpyrimidine-2,4-diamine] is less than 200 nM; for `CNc1cc(-c2ccc(OC)cc2)nc(N)n1` [Example 33, 6-(4-methoxyphenyl)-4-N-methylpyrimidine-2,4-diamine] it is less than 200 nM; for `CNc1cc(-c2cc(C(F)(F)F)cc(C(F)(F)F)c2)nc(N)n1` [Example 34, 6-[3,5-bis(trifluoromethyl)phenyl]-4-N-methylpyrimidine-2,4-diamine] it is less than 200 nM. For `CNc1cc(-c2cccc(C(F)(F)F)c2)nc(N)n1` [Example 37, 4-N-methyl-6-[3-(trifluoromethyl)phenyl]pyrimidine-2,4-diamine], the IC50 was less than 200 nM. Same read-out and setting: the value for `CNc1cc(-c2ccc3c(c2)OCO3)nc(N)n1` [Example 39, 6-(2H-1,3-benzodioxol-5-yl)-4-N-methylpyrimidine-2,4-diamine] was less than 200 nM; that for `CNc1cc(-c2cccc(NC(C)=O)c2)nc(N)n1` [Example 41, N-{3-[2-amino-6-(methylamino)pyrimidin-4-yl]phenyl}acetamide] was less than 200 nM. Consider `CNc1cc(-c2ccc(NC(C)=O)cc2)nc(N)n1` [Example 47, N-{4-[2-amino-6-(methylamino)pyrimidin-4-yl]phenyl}acetamide], for which the IC50 was less than 200 nM.
